Source: US20070196514A1, “Prostate cancer treatment with glycogen synthase kinase-3beta inhibitors” (priority 2006, published 2007)

Legend:
[1] = test system: PC-3 xenografts; assay: mouse xenograft model, protocol B (palpable tumors), with in vivo BrdU labeling and TUNEL; set-up: species or system nude mice
Experimental: All animal studies were conducted under an approved Institutional Animal Care and Use Committee protocol. Single cell suspensions (2×10^6 cells in 0.1 ml of RPMI1640 medium plus 10% FBS) were inoculated subcutaneously (s.c.) into the rear flanks (two sites/mouse) of 6 to 7 weeks old male nude mice (Charles River, Wilmington, Mass.). For protocol A, mice were randomly divided into two groups (5 animals each). On next day after inoculation, one group of animals received i.p. injection of LiCl at a daily dose of 2 mg/kg body weight. LiCl was dissolved in PBS. The control groups of animals received PBS alone in the same volume. Xenograft development and growth were monitored for 8 weeks. The tumor dimensions were measured twice a week. The tumor volume was calculated by the formula of L×W×H×0.5236 (Miyake 2001). At the end of treatment, xenograft tumors were extirpated, and the final tumor size and weight, as well as animal weight were measured. For protocol B, treatment began until tumor became palpable or 50 mm^3 in size, and LiCl or PBS was injected (5 animals each group) as above for a two-week course. Tumor size and weight were measured at the end of treatment. For BrdU in vivo labeling, the animals were injected i.p. with 0.5 ml of a 10-mM BrdU solution (Invitrogen) 2 hours before sacrifice. For experiments involving LNCaP-BclxL SB216763 subline cells (Liao 2005) were inoculated as above, and SB216763 treatment was started two weeks later when palpable xenografts were established. […] Tumor growth was monitored as discussed herein. […]
In protocol B, animals were treated with LiCl at 2 mg/kg for a two-week course when PC-3 xenografts were palpable or about […] in size. Tumor weight was measured at the endpoint of treatment and was compared between LiCl-treated and PBS control groups.
Next, the DNA synthesis associated with LiCl-induced tumor suppression in vivo was also investigated. DNA synthesis was measured by an in vivo BrdU incorporation assay. Meanwhile, apoptotic events, if any, were detected using TUNEL assay. […]

[2] = test system: LNCaP cells; assay: MTT cell growth assay; assay type: cell-based, human; conditions: equimolecular concentrations of LiCl, NaCl, KCl, three days
Experimental: For MTT-based cell growth assays, cells seeded in 96-well plates were serum-starved for 48 hours, and were then treated with vehicle or different reagents for different time periods as indicated in the figures. MTT assay were carried out using a pre-assembled kit (Sigma) according to the manufacturer's manual.
To rule out the eventual intervention of the chloride anion and the osmotic disturbance, the effect of LiCl was compared with sodium chloride (“NaCl”) and potassium chloride (“KCl”) at equimolecular concentrations in both LNCaP and PC-3 cell lines. In addition, the androgen-insensitive C4-2 cell line was included. To easily handle the experiments while multiple comparisons were taken in place, a MTT assay was used to assess cell growth.
Lastly, two GSK-3β-specific small chemical inhibitors, SB216763 and BIO, were used to verify that LiCl-induced suppression of cell growth is due to GSK-3β inhibition. LNCaP cells were seeded as above and then treated with increasing doses of the inhibitors in a full culture medium. Cell growth was assessed three days later by MTT assay.

[3] = test system: LNCaP cells; assay: Western blot of cell cycle-related proteins; assay type: cell-based, human
Experimental: Western blot was carried out as described previously (Liao 2004, Liao 2003, and Liao 2005). Briefly, cells were pellets and lysed in radio-immunoprecipitation assay (“RIPA”) buffer containing protease inhibitors (Half™ Protease Inhibitor Cocktail Kit, PIERCE, Rockford, Ill.). Proteins were separated on SDS-PAGE gels and transferred to Immuno-Blot™ PVDF membrane (BIO-RAD, Hercules, Calif.). Membranes were blocked in a tris-buffered solution plus Tween 20 (“TBST”) solution with 5% nonfat dry milk and incubated with primary antibodies overnight at 4° C. Immunoreactive signals were detected by horseradish peroxidase-conjugated secondary antibodies (Santa Cruz Biotech., Santa Cruz, Calif.) followed by SuperSingnal® WestFeml® Maximum Sensitivity Substrate (PIERCE).
To verify those alterations at a protein level, two series experiments were conducted using Western blot technique. The first involved a time-course experiment. After serum starvation, LNCaP cells were left untreated or treated as before with LiCl for up to 24 hours. Cells were harvested at 18-24 hours.
Next, a dose-response experiment was performed. Following serum starvation for 24 hours, LNCaP cells were treated with BIO at different doses for another 24 hours. Control cells received the vehicle as treatment.

[4] = test system: LNCaP cells; assay: trypan blue viable cell counting; assay type: cell-based, human
Experimental: (§1) For cell counting assay, cells were seeded at the density of 5×10^4 cells in 12-well plates in duplicates and allowed for attachment overnight. Cells were harvested daily for three days and the number of viable cells was counted using a hemocytometer after staining in trypan blue solution (Liao 2003).
(§2) First, the effect of LiCl on cell growth was investigated. AR-positive, androgen-dependent LNCaP cells or AR-null PC-3 cells were seeded in a 12-well plate overnight and then treated with or without LiCl in different doses.

[5] = test system: PC-3 cells; assay: trypan blue viable cell counting; assay type: cell-based, human
Experimental: as §1, §2

[6] = LiCl at a dose of less than 3 mM, up to three days

In the case of `[Cl-].[Li+]` [LiCl, Lithium chloride], the “TUNEL staining (apoptotic events) in xenografts, LiCl vs PBS” value ([1]; LiCl 2 mg/kg) was “did not show any difference”, the “BrdU labeling in xenografts vs PBS control” value ([1]; in vivo BrdU incorporation, BrdU injected two hours before sacrifice) was “significantly reduced” and the “tumor weight vs PBS control” value ([1]; protocol B, LiCl 2 mg/kg, two-week course on palpable xenografts) was “significantly reduced”. For the same compound, the “cell growth inhibition (MTT)” value [2] was “dramatic inhibition”, the “protein levels of cyclin B, PCNA, pRb, cdc2, cdc42 and GSK-3β (Western blot)” value ([3]; LiCl time-course) was “no significant change” and the “serum-induced increase of cyclins A and E, cdc6 and cdc25C protein (Western blot)” value ([3]; LiCl time-course up to 24 hours) was “dramatically suppressed”. For the same compound, the “protein levels of cyclin D1 (Western blot)” value ([3]; LiCl time-course, vs control) was “slightly higher”, the “p21CIP1 protein expression (Western blot)” value ([3]; LiCl time-course, vs untreated control) was “increased significantly” and the “inhibition of cell growth (viable cell count)” value (“inhibition of cell growth” for short) ([4]; LiCl 10 mM) was “significantly inhibited”. The mean doubling-time ([4]; LiCl 10 mM (no treatment 23.7 hours)) was 33.3 h, the “inhibition of cell growth” value [4, 6] was “no obvious inhibition” and the “inhibition of cell growth” value ([5]; LiCl 10 mM) was “significantly inhibited”. For the same compound, the mean doubling-time ([5]; LiCl 10 mM (no treatment 21.5 hours)) was 30.2 h and the “inhibition of cell growth” value [5, 6] was “no obvious inhibition”.
